The values that follow come from patent US10392404B2, “Compounds and compositions as kinase inhibitors” (NOVARTIS AG, priority 2014, dated 2019).

The target of one assay is T1, b-Raf (V600E) (Homo sapiens, UniProt P15056, V600E).
T1 construct: made in house
Briefly: In vitro Raf activity determination (Alpha Screen, biotinylated kinase-dead MEK1 substrate), B-Raf. It is filed as biochemical. The note with it: b-Raf (V600E) approximately 4 pM; ATP 10 μM; pre-incubation 60 minutes; reaction 3 hours at room temperature. The essentials:
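Activated b-Raf(V600E) (~4 pM) pre-incubated 60 min with compound and biotinylated kinase-dead (K97R) MEK1 (~10 nM), then reacted 3 h at room temperature with 10 μM ATP in 50 mM Tris pH 7.5, 15 mM MgCl2, 0.01% BSA, 1 mM DTT. Phospho-MEK detected by AlphaScreen; IC50 by non-linear regression.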

Another assay concerns the target T2, C-RAF (Homo sapiens, UniProt P04049, Y340E/Y341E).
T2 construct: His tag (implied by nickel chromatography) (cleaved yes); StrepII tag (cleaved yes); made in house; host or cells: Sf9 insect cells (baculovirus), CRAF and h14-3-3 zeta co-expressed; MEK1 substrate from E. coli
Briefly: In vitro Raf activity determination (Alpha Screen, biotinylated kinase-dead MEK1 substrate), C-Raf. It is filed as biochemical. The conditions noted are these: c-Raf approximately 4 nM; ATP 1 μM; pre-incubation 60 minutes; reaction 1 hour at room temperature. The essentials:
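Full-length C-Raf carrying Y340E/Y341E, co-expressed with 14-3-3ζ in Sf9 cells, at approximately 4 nM, with approximately 10 nM biotinylated kinase-dead MEK1 (K97R) and 1 μM ATP, pH 7.5. Compound preincubated 60 min, reaction 1 hour at room temperature. Phospho-MEK read by AlphaScreen; IC50 by non-linear regression.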

Usually IC50 stands for the point on the concentration scale where inhibition reaches its midpoint.

T1 sequence (P15056 whole entry V600E): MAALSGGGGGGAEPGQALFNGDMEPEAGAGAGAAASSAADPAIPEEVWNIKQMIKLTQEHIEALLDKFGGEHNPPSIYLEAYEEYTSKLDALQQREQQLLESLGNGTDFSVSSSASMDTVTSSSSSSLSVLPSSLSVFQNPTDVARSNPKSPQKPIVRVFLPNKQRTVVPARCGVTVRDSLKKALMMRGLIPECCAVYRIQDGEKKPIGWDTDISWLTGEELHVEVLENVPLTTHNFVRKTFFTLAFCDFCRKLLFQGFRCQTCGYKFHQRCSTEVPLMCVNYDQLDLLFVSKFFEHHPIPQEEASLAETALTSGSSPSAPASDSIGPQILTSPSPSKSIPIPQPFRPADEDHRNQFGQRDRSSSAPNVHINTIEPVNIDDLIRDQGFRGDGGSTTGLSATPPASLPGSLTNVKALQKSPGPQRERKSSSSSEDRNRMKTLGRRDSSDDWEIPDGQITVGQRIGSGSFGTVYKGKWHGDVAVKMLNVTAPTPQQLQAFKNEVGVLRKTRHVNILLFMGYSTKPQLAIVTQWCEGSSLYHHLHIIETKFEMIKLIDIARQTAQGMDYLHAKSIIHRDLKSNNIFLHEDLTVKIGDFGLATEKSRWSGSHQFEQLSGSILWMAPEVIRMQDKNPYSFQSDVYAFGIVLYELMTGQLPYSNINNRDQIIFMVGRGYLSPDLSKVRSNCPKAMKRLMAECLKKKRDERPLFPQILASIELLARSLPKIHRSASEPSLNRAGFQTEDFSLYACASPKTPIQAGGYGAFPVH
T2 sequence (P04049 whole entry Y340E/Y341E): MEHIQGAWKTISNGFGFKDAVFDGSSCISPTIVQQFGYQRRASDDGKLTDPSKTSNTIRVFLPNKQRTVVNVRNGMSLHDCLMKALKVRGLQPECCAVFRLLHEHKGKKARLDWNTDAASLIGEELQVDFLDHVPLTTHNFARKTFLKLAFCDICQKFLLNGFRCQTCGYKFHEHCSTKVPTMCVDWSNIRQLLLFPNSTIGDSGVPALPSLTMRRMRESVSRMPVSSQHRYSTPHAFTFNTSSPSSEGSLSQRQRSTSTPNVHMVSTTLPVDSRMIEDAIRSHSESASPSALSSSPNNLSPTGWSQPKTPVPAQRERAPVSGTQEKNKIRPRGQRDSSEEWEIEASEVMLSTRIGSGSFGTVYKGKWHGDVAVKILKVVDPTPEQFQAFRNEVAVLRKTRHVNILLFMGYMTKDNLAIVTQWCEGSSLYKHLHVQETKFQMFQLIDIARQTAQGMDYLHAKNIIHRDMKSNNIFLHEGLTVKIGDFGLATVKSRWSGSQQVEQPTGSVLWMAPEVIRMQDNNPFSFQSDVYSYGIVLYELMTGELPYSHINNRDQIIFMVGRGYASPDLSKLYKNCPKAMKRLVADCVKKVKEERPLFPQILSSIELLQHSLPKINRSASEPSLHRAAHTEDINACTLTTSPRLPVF
T2 sequence (P63104 whole entry partner): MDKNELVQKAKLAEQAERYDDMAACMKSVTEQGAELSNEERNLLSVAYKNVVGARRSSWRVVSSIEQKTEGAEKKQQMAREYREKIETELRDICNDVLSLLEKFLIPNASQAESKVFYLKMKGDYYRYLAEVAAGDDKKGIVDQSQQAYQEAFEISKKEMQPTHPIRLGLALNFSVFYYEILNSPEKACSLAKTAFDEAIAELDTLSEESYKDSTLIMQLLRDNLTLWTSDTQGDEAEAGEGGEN

For the compound `Cc1ncc(NC(=O)c2cccc(C(F)(F)F)c2)cc1-c1cnc(OCCO)c(C#N)c1` [Example 99, N-(5′-cyano-6′-(2-hydroxyethoxy)-2-methyl-[3,3′-bipyridin]-5-yl)-3-(trifluoromethyl) benzamide], the IC50 at b-Raf (V600E) was 5.8 nM; at C-RAF, 0.712 nM.
On the same counts, the results for `Cc1ncc(NC(=O)c2cccc(C(F)(F)F)c2)cc1-c1cnc(N2CCOCC2)c(C#N)c1` [Example 66, N-(5′-cyano-2-methyl-6′-morpholino-[3,3′-bipyridin]-5-yl)-3-(trifluoromethyl) benzamide] are 0.852 nM and 0.203 nM.
The corresponding values for `Cc1cc(CC(=O)Nc2ccc(C)c(-c3cnc(N(C)C)c(C#N)c3)c2)on1` [Example 257, N-(3-(5-cyano-6-(dimethylamino)pyridin-3-yl)-4-methylphenyl)-2-(3-methylisoxazol-5-yl)acetamide] are 12.9 nM and 1.36 nM.
On the same counts, the results for `Cc1ccc(NC(=O)c2ccnc(S(C)(=O)=O)c2)cc1-c1cnc(N2CC(C)(O)C2)c(C#N)c1` [Example 217, N-(3-(5-cyano-6-(3-hydroxy-3-methylazetidin-1-yl)pyridin-3-yl)-4-methylphenyl)-2-(methylsulfonyl) isonicotinamide] are 6.78 nM and 1.07 nM.
In the case of `Cc1ncc(NC(=O)c2cc(C(C)(F)F)ccn2)cc1-c1cnc(N2CC(C)(O)C2)c(C#N)c1` [Example 239], the IC50 at b-Raf (V600E) came out at 6.38 nM; against C-RAF, 0.711 nM.
In the case of `Cc1ccc(NC(=O)c2cc(C(C)(C)O)ccn2)cc1-c1cnc(N2CCOCC2)c(C#N)c1` [Example 237, N-(3-(5-cyano-6-morpholinopyridin-3-yl)-4-methylphenyl) 4-(2-hydroxypropan-2-yl)picolinamide], the IC50 turned out to be 2.25 nM against b-Raf (V600E) and 0.695 nM against C-RAF.
The corresponding values for `Cc1ncc(NC(=O)c2ccnc(C(C)C)c2)cc1-c1cnc(C2CCOCC2)c(C#N)c1` [Example 130, N-(5′-cyano-2-methyl-6′-(tetrahydro-2H-pyran-4-yl)-[3,3′-bipyridin]-5-yl)-2-isopropyl-isonicotinamide] are 4.83 nM and 0.879 nM.
